# Assay results as given in patent US20200207829A1, “CHIMERIC RECEPTORS” (Oxford University Innovation Limited, priority 2017, published 2020).
# Target: T1, dCas9(N/C)-synLPAR1 (Homo sapiens, UniProt Q92633)
# T1 construct: TEV cleavage site ENLYFQL (TCS(Q'L)) (C); P2A + puromycin resistance protein (C, cleaved yes); TEV cleavage site ENLYFQG (TCS(Q'G)) (C); T2A + MCP-P65-HSF1 (C, cleaved yes); expressed in transfected cells; host or cells: HTLA cells (HEK-293 stably expressing beta-arrestin2-TEV fusion)
# Assay: LPA dose-response of dCas9(N/C)-synLPAR1 (EYFP activation score, HTLA cells)
# Type: cell-based
# Settings: sgEYFP, read-out: EC50 of LPA dose-dependent activation
# Method: Transfection mixtures were vortexed for 10 seconds and incubated at room temperature for 20-30 minutes. Full media was removed from cells and replaced with experiment-specific transfection media prior to adding the DNA:PEI transfection mix as follows. For dCas9(N/C)-synBDKBR2 experiments, HTLA cells were transfected in DMEM+2% (v/v) FBS supplemented with bradykinin at indicated concentrations. The bradykinin transfection media was replaced after 20 hours with HTLA full media also supplemented with bradykinin, and incubated for an additional 24 hours. […]
# For all EYFP reporter experiments, media was removed 44 or 48 hours post-transfection and cells were washed with PBS (1× phosphate buffer saline), trypsinized (0.05% trypsin-EDTA, Cat. #25300062, Gibco), and kept in 1×PBS on ice. […] 100,000 total events were recorded for each condition. Data was analysed and compensated using the FlowJo package (FLOWJO LLC). To calculate an EYFP activation score which integrates both reporter fluorescence intensity and % of activated cells the following formula was used as previously described (Xie et al., 2011). […]
# The numerator (% EYFP^+ve×EYFP^mean) provides a weighted mean fluorescence accounting both for the strength of reporter activation (EYFP^mean) as well as population level activation (% EYFP^+ve), which penalizes OFF-state leakage. […]
# T1 sequence (Q92633 with tags, fused parts or gaps): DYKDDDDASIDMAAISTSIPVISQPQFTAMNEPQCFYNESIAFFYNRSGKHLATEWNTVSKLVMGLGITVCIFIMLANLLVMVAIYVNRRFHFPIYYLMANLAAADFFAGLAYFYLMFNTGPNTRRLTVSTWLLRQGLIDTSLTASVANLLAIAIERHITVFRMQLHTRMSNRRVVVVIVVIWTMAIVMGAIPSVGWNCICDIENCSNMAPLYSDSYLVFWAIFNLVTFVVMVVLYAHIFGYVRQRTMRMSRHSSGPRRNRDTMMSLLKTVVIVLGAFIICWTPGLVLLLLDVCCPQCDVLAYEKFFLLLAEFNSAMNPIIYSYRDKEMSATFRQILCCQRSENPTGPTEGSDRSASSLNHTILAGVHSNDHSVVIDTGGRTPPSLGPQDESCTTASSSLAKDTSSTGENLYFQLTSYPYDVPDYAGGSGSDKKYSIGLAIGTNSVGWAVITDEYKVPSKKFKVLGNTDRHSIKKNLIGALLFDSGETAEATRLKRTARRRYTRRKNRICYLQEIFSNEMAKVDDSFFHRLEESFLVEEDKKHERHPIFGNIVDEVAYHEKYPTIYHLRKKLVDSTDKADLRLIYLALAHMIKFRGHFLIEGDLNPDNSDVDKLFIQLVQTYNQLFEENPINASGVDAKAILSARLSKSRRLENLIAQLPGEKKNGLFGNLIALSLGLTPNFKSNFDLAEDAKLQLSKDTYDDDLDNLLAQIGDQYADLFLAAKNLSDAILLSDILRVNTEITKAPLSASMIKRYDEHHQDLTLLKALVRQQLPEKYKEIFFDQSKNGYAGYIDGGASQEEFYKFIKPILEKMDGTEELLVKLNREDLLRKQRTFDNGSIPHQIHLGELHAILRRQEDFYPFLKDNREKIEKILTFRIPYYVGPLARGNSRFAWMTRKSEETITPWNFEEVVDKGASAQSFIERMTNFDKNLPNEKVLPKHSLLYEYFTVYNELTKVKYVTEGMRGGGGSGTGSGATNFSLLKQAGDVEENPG
# T1 sequence (Q92633 with tags, fused parts or gaps): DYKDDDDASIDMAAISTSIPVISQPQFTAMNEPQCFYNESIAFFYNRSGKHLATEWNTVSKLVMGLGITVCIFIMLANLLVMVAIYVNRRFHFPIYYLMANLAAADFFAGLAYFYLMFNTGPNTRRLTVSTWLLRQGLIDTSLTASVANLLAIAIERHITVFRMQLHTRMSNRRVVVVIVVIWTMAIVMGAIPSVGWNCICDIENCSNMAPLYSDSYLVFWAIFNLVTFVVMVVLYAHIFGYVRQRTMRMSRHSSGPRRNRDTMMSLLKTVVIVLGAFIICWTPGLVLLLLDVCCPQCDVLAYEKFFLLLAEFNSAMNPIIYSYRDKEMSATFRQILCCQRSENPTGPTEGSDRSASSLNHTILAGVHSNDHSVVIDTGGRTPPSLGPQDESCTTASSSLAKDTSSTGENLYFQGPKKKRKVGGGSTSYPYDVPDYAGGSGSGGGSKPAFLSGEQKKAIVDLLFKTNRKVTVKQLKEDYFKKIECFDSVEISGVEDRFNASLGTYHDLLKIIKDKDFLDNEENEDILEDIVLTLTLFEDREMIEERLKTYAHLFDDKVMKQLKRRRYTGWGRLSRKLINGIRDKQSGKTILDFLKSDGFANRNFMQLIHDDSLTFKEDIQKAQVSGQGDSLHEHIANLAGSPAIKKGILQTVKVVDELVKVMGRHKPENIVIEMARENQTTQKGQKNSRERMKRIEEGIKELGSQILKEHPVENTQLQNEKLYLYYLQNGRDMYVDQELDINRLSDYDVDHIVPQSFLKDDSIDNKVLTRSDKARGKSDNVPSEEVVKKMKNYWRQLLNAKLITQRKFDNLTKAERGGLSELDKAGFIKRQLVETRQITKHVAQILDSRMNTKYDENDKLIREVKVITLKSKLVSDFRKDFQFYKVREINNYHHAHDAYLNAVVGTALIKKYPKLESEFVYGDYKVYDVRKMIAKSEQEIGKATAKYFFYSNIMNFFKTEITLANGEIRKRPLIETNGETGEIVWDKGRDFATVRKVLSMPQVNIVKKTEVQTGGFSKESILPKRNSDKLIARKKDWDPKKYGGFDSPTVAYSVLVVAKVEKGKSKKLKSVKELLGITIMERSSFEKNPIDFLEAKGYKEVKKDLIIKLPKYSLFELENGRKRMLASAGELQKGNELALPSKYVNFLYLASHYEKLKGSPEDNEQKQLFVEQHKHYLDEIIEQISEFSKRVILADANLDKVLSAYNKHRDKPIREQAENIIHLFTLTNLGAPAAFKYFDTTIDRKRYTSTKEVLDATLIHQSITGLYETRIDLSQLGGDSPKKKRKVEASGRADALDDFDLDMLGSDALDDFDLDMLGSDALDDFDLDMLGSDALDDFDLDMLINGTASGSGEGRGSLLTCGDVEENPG
substance,measurement,value
1-oleoyl lysophosphatidic acid [LPA],EC50,1820 nM
